The source of these data is patent US20040248991A1, “Compositions for lessening oxidative stress” (priority 2001, published 2004).

Series [1] has as its system spleen tissues of GK rats. Kind of series: Tissue protecting effect on spontaneously diabetic rat (histopathological evaluation of spleen tissue denaturation). The following applies: oral administration for 7 weeks, spleen histopathology, four examples per group. It counts as in vivo. How it is done:
The protective effect of each of oxidized coenzyme Q10 and reduced coenzyme Q10 (containing about 2% by weight of oxidized coenzyme Q10) on denaturation of the spleen tissues of GK rats by using the same test system as in Example 1. As a control, a soybean oil solution not containing coenzyme Q10 was orally administered. After the coenzyme Q10 was administered for 7 weeks, the spleen was extracted from each rat, and the degree of tissue denaturation was histopathologically evaluated.
The tissue protecting effect of vitamin E was evaluated by the same method as in Example 4.

For series [2] the following is noted: cited from earlier work.
Series [3] concerns urinary 8OH-dG. As to the kind of experiment: Oxidative stress lessening effect on spontaneously diabetic mouse (urinary 8OH-dG). It counts as in vivo. The following applies: KK-Ay mice, 4 weeks. On the procedure: (§1) The effect of lessening oxidative stress in vivo was evaluated with urinary 8-hydroxydeoxyguanosine (8OH-dG) having high effectiveness as an oxidative stress marker. This material results from nucleic acid damage due to oxidative stress, and is discharged into urine without undergoing further metabolism. It is thus thought that the amount of oxidative stress in vivo and the amount of 8OH-dG discharged have a close relationship therebetween. A decrease in amount of the material in urine means a reduction in oxidative stress in vivo and the prevention of damage to nucleic acid.
The dose dependency of the oxidative stress lessening effect of each of reduced and oxidized coenzyme Q10 was evaluated by the same method as that used for GK rats except that KK-Ay mice with spontaneous diabetes and having a higher blood sugar level than that of GK rats were used. KK-Ay 5-week old male mice were used, and evaluated in groups in each of which n=11. Oxidized coenzyme Q10 or reduced coenzyme Q10 (containing about 2% by weight of oxidized coenzyme Q10) was mixed with a purified feed (produced by CLEA JAPAN, INC.) at each of ratios of 0.02% by weight, 0.1% by weight, and 0.5% by weight, and each mixture was freely given to the KK-Ay mice. In a control group, the purified feed not containing coenzyme Q10 was freely given to rats. 4 weeks after the supply, urine was collected, and the amount of urinary 8OH-dG was determined by the same method as in Example 1. […] In the reduced coenzyme Q10 administration group, with a dose of 0.02% by weight, the lessening effect was low (82% of the control group), while with a dose of 0.1% by weight or more, the lessening effect was significant (dose of 0.1% by weight: 73% of the control group, dose of 0.5% by weight: 56% of the control group). In the oxidized coenzyme Q10 administration group, the dose-dependent lessening effect was observed without showing a significant difference, and with a dose of 0.5% by weight, the amount of urinary 8OH-dG was 78% of that of the control group.

The subject of series [4] is urinary 8OH-dG. As to the kind of experiment: Oxidative stress lessening effect on normal rat (urinary 8OH-dG by ELISA). It counts as in vivo. The following applies: SD rats, oral soybean oil solution, 100 mg/kg/day for 4 weeks. How it is done:
as §1
A soybean oil solution of oxidized coenzyme Q10 or reduced coenzyme Q10 (containing about 2% of oxidized coenzyme Q10) was orally administered to SD rats (6-week old, male) in a dose of 100 mg/kg/day for 4 weeks. 4 weeks after, urine was collected, and the amount of urinary 8OH-dG was determined by an ELISA kit (Japan Institute for the Control of Aging).
In general terms: In an ELISA, binding on a coated surface is turned into a signal by an enzyme label.

The subject of series [5] is urinary 8OH-dG. Kind of series: Oxidative stress lessening effect on spontaneously diabetic rat (urinary 8OH-dG). It counts as in vivo. The following applies: GK rats, 0.1% by weight in feed. How it is done: as §1
The oxidative stress lessening effect of each of reduced and oxidized coenzyme Q10 in vivo was evaluated by using GK rats with spontaneous diabetes which induced spleen tissue denaturation due to oxidative stress in vivo. A feed (CE-2, produced by CLEA JAPAN, INC.) containing 0.1% by weight of reduced coenzyme Q10 (containing about 2% by weight of oxidized coenzyme Q10) or oxidized coenzyme Q10 was freely given to GK rats (5-week old, male, n=4 in each group). In a control group, the feeds not containing coenzyme Q10 was freely given to the rats. 2 weeks and 4 weeks after, urine was collected, and the amount of urinary 8OH-dG was determined by the same method as in Example 1. […] In the oxidized coenzyme Q10 administration group, the amount of urinary 8OH-dG measured 2 weeks after the administration was decreased to 58% of the control group, and the amount of urinary 8OH-dG measured 4 weeks after the administration was deceased to 52% of the control group.
The oxidative stress lessening effect of a typical antioxidant, vitamin E, was evaluated by using GK rats in the same test system as in Example 2. Like coenzyme Q10, vitamin E was mixed with a feed at a ratio of 0.1% by weight, and the resulting foodstuff was freely given to the GK rats. 2 weeks and 4 weeks after the feeding, the amount of urinary 8OH-dG was determined. […] In comparison to the coenzyme Q10 administration group of Example 2, 2 weeks after, the decreasing effect in Reference Example 1 was lower the effects of both the reduced form and the oxidized form in Example 2, and 4 weeks after, the effect was at the same level as that of the oxidized coenzyme Q10 and lower than that of the reduced coenzyme Q10 in Example 2.

Another series concerns rats. The following applies: continuous administration, 1200 mg/kg/day for 52 weeks; cited from earlier work.
The next series relates to kidney dialysis patients. The following applies: daily dose of 800 IU; cited from earlier work.
Where [6] appears, read: listed as Oxidized coenzyme Q10.
Where [7] appears, read: 2 weeks after the administration.
Setting [8] is: 4 weeks after the administration.

In the case of `COC1=C(OC)C(=O)C(C/C=C(\C)CC/C=C(\C)CC/C=C(\C)CC/C=C(\C)CC/C=C(\C)CC/C=C(\C)CC/C=C(\C)CC/C=C(\C)CC/C=C(\C)CCC=C(C)C)=C(C)C1=O` [oxidized coenzyme Q10], in series [1], the “Number of examples with finding: Islet fibrillation 1+” value (“Number … Islet fibrillation 1+” below) is “two”, the “Number of examples with finding: Islet fibrillation 2+” value (“Number … Islet fibrillation 2+” below) was “two” and the “Number of examples with finding: Normal” value was determined as 0. Moreover, in series [1] (setting [6]), the “Number … Islet fibrillation 1+” value is 2 and the “Number … Islet fibrillation 2+” value came to 2. In series [2], the “antioxidative activity in vitro” value is “exhibits no antioxidative activity”. For the same molecule, the “amount of urinary 8OH-dG relative to control group” value in the series with urinary 8OH-dG [3] (0.5% by weight in feed) is 78%. In the series on urinary 8OH-dG [4], the “amount of urinary 8OH-dG relative to solvent control group (assumed as 100%)” value is listed as “about 60%”. The “amount of urinary 8OH-dG relative to control group (assumed as 100%)” value in the series on urinary 8OH-dG [5] (setting [7]) amounted to 58%. For the same molecule, in the series on urinary 8OH-dG [5] (setting [8]), the “amount of urinary 8OH-dG relative to control group (assumed as 100%)” value came out at 52%.
With `COc1c(O)c(C)c(C/C=C(\C)CC/C=C(\C)CC/C=C(\C)CC/C=C(\C)CC/C=C(\C)CC/C=C(\C)CC/C=C(\C)CC/C=C(\C)CC/C=C(\C)CCC=C(C)C)c(O)c1OC` [reduced coenzyme Q10], the “Number … Islet fibrillation 1+” value in series [1] is reported as “tree”; in series [1] (listed as Reduced coenzyme Q10), 3. Moreover, the “Number … Islet fibrillation 2+” value in series [1] was “one”; in series [1] (listed as Reduced coenzyme Q10), 1. In addition, in series [1], the “Number of examples with finding: Normal” value was 0. In addition, in series [2], the “antioxidative activity in vitro” value is listed as “exhibits antioxidative activity in vitro”. The figures for the “amount of urinary 8OH-dG relative to control group” value with urinary 8OH-dG [3] (0.02% by weight in feed), with urinary 8OH-dG [3] (0.1% by weight in feed) and with urinary 8OH-dG [3] (0.5% by weight in feed) were 82%, 73% and 56%, respectively. Moreover, the “amount of urinary 8OH-dG relative to solvent control group (assumed as 100%)” value with urinary 8OH-dG [4] was “about 40%”. Moreover, the “amount of urinary 8OH-dG relative to control group (assumed as 100%)” value in the series on urinary 8OH-dG [5] (setting [7]) is given as “about 40%”; with urinary 8OH-dG [5] (setting [8]), “kept at the same level”.
Take `COC1=C(OC)C(=O)C(C/C=C(\C)CC/C=C(\C)CC/C=C(\C)CC/C=C(\C)CC/C=C(\C)CC/C=C(\C)CC/C=C(\C)CC/C=C(\C)CC/C=C(\C)CCC=C(C)C)=C(C)C1=O` [coenzyme Q10]: in the series with rats, the “toxic effect in chronic toxicity test” value is “no toxic effect was observed”.
For vitamin E [reference compound], in the series with kidney dialysis patients, the “increase of risk of brain hemorrhage as a side effect” value is reported as 63% and the “patients died from hemorrhagic diseases” value is “two”. Moreover, in series [1], the “Number … Islet fibrillation 1+” value is on record as “two”, the “Number … Islet fibrillation 2+” value is listed as “two” and the “Number of examples with finding: Normal” value is 0. Moreover, in series [1] (listed as VE), the “Number … Islet fibrillation 1+” value is 2 and the “Number … Islet fibrillation 2+” value turned out to be 2. In addition, the “amount of urinary 8OH-dG relative to control group (assumed as 100%)” value with urinary 8OH-dG [5] (setting [7]) is “about 80%”. Also, the “amount of urinary 8OH-dG relative to control group (assumed as 100%)” value in the series on urinary 8OH-dG [5] (setting [8]) stood at 51%.
